“Also recorded” adds a separate entry of the source. Like-named read-outs stand apart in the source and are kept apart here.
Experiments:
soybean lipoxygenase-1 = biological target: T1, soybean lipoxygenase-1 (Glycine max, UniProt P08170); experiment: Inhibition of soybean lipoxygenase; assay type: biochemical
T1 sequence (P08170 1-839): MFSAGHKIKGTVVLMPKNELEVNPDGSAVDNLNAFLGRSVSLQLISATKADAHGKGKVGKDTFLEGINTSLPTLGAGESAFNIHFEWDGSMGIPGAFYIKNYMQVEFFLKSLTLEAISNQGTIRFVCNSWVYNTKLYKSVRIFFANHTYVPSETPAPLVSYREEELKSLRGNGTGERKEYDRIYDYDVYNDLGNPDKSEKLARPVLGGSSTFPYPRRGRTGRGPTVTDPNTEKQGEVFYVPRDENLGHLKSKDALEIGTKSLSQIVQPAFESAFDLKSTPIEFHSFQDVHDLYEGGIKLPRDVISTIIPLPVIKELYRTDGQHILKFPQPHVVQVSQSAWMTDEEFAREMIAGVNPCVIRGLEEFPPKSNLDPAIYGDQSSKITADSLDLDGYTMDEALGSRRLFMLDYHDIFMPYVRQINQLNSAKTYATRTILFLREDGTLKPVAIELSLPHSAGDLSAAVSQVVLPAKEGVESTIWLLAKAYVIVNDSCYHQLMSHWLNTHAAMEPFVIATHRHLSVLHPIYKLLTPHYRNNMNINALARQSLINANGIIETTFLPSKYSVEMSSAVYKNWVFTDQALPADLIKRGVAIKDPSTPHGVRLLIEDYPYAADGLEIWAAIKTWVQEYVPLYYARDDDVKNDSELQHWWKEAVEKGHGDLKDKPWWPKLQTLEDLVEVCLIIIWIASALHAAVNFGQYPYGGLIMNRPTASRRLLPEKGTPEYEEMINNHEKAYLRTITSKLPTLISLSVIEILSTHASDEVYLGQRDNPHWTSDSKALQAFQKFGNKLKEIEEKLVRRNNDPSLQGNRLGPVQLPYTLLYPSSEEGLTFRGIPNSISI
Description: The reaction mixture contained the test compounds dissolved in ethanol and soybean lipoxygenase (250 U/mL) in Tris buffer (pH 9). The reaction was initiated by the addition of sodium linoleate (0.1 mM) and monitored for 7 min at 28 °C, by recording the absorbance of a conjugated diene structure at 234 nm. For the estimation of the type of inhibition, the above experiments were repeated, using sodium linoleate at 1 mM, which is higher than the saturating substrate concentration.

[1] = system: carrageenan-induced rat paw oedema; experiment: Carrageenan-induced rat paw oedema; assay type: in vivo; conditions: ip, i.p. 0.15 mmol/kg, 3.5 h post administration, vs controls, read-out: % Oedema Reduction
Description: An aqueous solution of carrageenan was prepared (1% w/v) and 0.1 mL of this was injected i.d. into the right hind paw of female rats; the left paw served as control. The tested compounds (suspended in water with a few drops of Tween 80) were given intra peritoneally (i.p.) (0.15 mmol/kg) 5 min prior to the carrageenan injection. After 3.5 h the hind paws were weighed separately. The produced oedema was estimated as paw weight increase.

[2] = system: Triton WR1339 (tyloxapol) induced hyperlipidemia; experiment: Triton WR1339 (tyloxapol) induced hyperlipidemia: plasma TC, TG, LDL-C; assay type: in vivo; conditions: ip, rat plasma, 24 h, tyloxapol 200 mg/kg i.p.; for inhibition in vivo at 50 µmol/kg: dose i.p. 50 µmol/kg; for inhibition in vivo at 150 µmol/kg: dose i.p. 150 µmol/kg; for inhibition in vivo at 300 µmol/kg: dose i.p. 300 µmol/kg; for inhibition in vivo at 500 µmol/kg: dose i.p. 500 µmol/kg
[3] = system: rat hepatic microsomal membrane lipid peroxidation; experiment: Inhibition of rat hepatic microsomal membrane lipid peroxidation induced by ferrous ascorbate; assay type: biochemical; conditions: for Antioxidant activity (lipid peroxidation and DPPH experiments): lipid peroxidation inhibition and DPPH interaction, result in words; for IC50: rat hepatic microsomal fraction, ferrous ascorbate, 45 min incubation
Description: The incubation mixture contained heat-inactivated rat hepatic microsomal fraction, ascorbic acid (0.2 mM) in Tris–HCl/KCl buffer (pH 7.4) and the test compounds dissolved in dimethylsulphoxide. The reaction was initiated by FeSO4 (10 µM) and the mixture was incubated at 37 °C. Aliquots were taken at various time intervals for 45 min. Lipid peroxidation was assessed spectrophotometrically (535 against 600 nm) by the determination of 2-thiobarbituric acid (TBA) reactive material.

[4] = Interaction with the stable radical DPPH; conditions: DPPH 200 µΜ, 30 min incubation
Description: Compounds (in absolute ethanol, final concentration 50–200 µM) were added to an equal volume of an ethanolic solution of DPPH (final concentration 200 µM) at room temperature (22 ± 2 °C). Absorbance (517 nm) was recorded after 30 min [22].

[5] = sodium linoleate 0.1 mM, 7 min incubation, read-out: Lipoxygenase IC50
[6] = read-out: % Reduction LDL-C (LDL cholesterol)
[7] = read-out: % Reduction TC (total cholesterol)
[8] = read-out: % Reduction TG (triglycerides)
[9] = sodium linoleate 0.1 mM, 7 min incubation

Structure (SMILES)	IC50 (soybean lipoxygenase-1; [5]) [µM]	inhibition in vivo at 150 µmol/kg [1] [%]	inhibition in vivo at 50 µmol/kg [2, 6] [%]	inhibition in vivo at 50 µmol/kg [2, 7] [%]	inhibition in vivo at 50 µmol/kg [2, 8] [%]	melting point [°C]	other results
CC(C)(C)c1cc(/C=C/C(=O)O)cc(C(C)(C)C)c1O [BHA, (E)-3-(3,5-di-tert-butyl-4-hydroxyphenyl)acrylic acid, reference compound]	> 300						
CC(C)Cc1ccc(C(C)C(=O)OC2N=C(c3ccccc3Cl)c3cc(Cl)ccc3NC2=O)cc1 (centres unmarked) [Compound 1, 7-Chloro-5-(2-chlorophenyl)-2-oxo-2,3-dihydro-1H-benzo[e][1,4]diazepin-3-yl 2-(4-isobutylphenyl) propanoate]		68	43	44	57	105 to 122	inhibition in vivo at 150 µmol/kg [2, 6]: 56%; inhibition in vivo at 150 µmol/kg [2, 7]: 82%; inhibition in vivo at 150 µmol/kg [2, 8]: 65%; Lipoxygenase % Inhibition (soybean lipoxygenase-1; compound 50 µΜ, sodium linoleate 0.1 mM, 7 min incubation): 14%/50 µΜ
COc1ccc2cc(C(C)C(=O)OC3N=C(c4ccccc4Cl)c4cc(Cl)ccc4NC3=O)ccc2c1 (centres unmarked) [Compound 2, 7-Chloro-5-(2-chlorophenyl)-2-oxo-2,3-dihydro-1H-benzo[e][1,4]diazepin-3-yl 2-(6-methoxynaphthalen-2-yl)propanoate]		46	42	60	71	136 to 139	Lipoxygenase IC50 (soybean lipoxygenase-1; [9]): -
CC(C(=O)OC1N=C(c2ccccc2Cl)c2cc(Cl)ccc2NC1=O)c1cccc(C(=O)c2ccccc2)c1 (centres unmarked) [Compound 3, 7-Chloro-5-(2-chlorophenyl)-2-oxo-2,3-dihydro-1H-benzo[e][1,4]diazepin-3-yl 2-(3-benzoylphenyl)propanoate]	84	65				195 to 201	
COc1ccc2c(c1)c(CC(=O)OC1N=C(c3ccccc3Cl)c3cc(Cl)ccc3NC1=O)c(C)n2C(=O)c1ccc(Cl)cc1 (centres unmarked) [Compound 4, 7-Chloro-5-(2-chlorophenyl)-2-oxo-2,3-dihydro-1H-benzo[e][1,4]diazepin-3-yl 2-(1-(4-chlorobenzoyl)-5-methoxy-2-methyl-1H-indol-3-yl)acetate]	86	67	60	59	59	189 to 191	
Cc1c(Cl)cccc1Nc1ccccc1C(=O)OC1N=C(c2ccccc2Cl)c2cc(Cl)ccc2NC1=O (centres unmarked) [Compound 5, 7-Chloro-5-(2-chlorophenyl)-2-oxo-2,3-dihydro-1H-benzo[e][1,4]diazepin-3-yl 2-((3-chloro-2-methylphenyl)amino)benzoate]		55	48	56	57	206 to 207	Lipoxygenase % Inhibition (soybean lipoxygenase-1; compound 100 µΜ, sodium linoleate 0.1 mM, 7 min incubation): 22%/100 µΜ
O=C(CCCCC1CCSS1)OC1N=C(c2ccccc2Cl)c2cc(Cl)ccc2NC1=O (centres unmarked) [Compound 6, 7-Chloro-5-(2-chlorophenyl)-2-oxo-2,3-dihydro-1H-benzo[e][1,4]diazepin-3-yl 5-(1,2-dithiolan-3-yl)pentanoate]		39	47	48	39	184 to 189	inhibition in vivo at 150 µmol/kg [2, 6]: 60%; inhibition in vivo at 150 µmol/kg [2, 7]: 82%; inhibition in vivo at 150 µmol/kg [2, 8]: 41%; Antioxidant activity (lipid peroxidation and DPPH experiments) [3]: do not express any antioxidant activity; also recorded: inactive; IC50 (soybean lipoxygenase-1): 60 µM
Cc1c(C)c2c(c(C)c1O)CCC(C)(C(=O)OC1N=C(c3ccccc3Cl)c3cc(Cl)ccc3NC1=O)O2 (centres unmarked) [Compound 7, 7-Chloro-5-(2-chlorophenyl)-2-oxo-2,3-dihydro-1H-benzo[e][1,4]diazepin-3-yl 6-hydroxy-2,5,7,8-tetramethylchroman-2-carboxylate]		56				138 to 144	inhibition in vivo at 150 µmol/kg [2, 6]: 69%; inhibition in vivo at 150 µmol/kg [2, 7]: 72%; inhibition in vivo at 150 µmol/kg [2, 8]: 64%; Percent Interaction with DPPH ([4]; compound 50 µΜ): 46%; Percent Interaction with DPPH ([4]; compound 100 µΜ): 82%; Percent Interaction with DPPH ([4]; compound 200 µΜ): 91%; IC50 [3]: 2.5 µM; Lipoxygenase IC50 (soybean lipoxygenase-1; [9]): -
O=C(Cc1c[nH]c2ccccc12)OC1N=C(c2ccccc2Cl)c2cc(Cl)ccc2NC1=O (centres unmarked) [Compound 9, 7-Chloro-5-(2-chlorophenyl)-2-oxo-2,3-dihydro-1H-benzo[e][1,4]diazepin-3-yl 2-(1H-indol-3-yl)acetate]		43				257 to 258	Antioxidant activity (lipid peroxidation and DPPH experiments) [3]: do not express any antioxidant activity; IC50 (soybean lipoxygenase-1): 255 µM
CC(C)Cc1ccc(C(C)C(=O)O)cc1 (centres unmarked) [Ibuprofen, reference compound]		36					inhibition in vivo at 300 µmol/kg [2, 6]: 42%; inhibition in vivo at 300 µmol/kg [2, 7]: 41%; inhibition in vivo at 300 µmol/kg [2, 8]: 38%
COc1ccc2c(c1)c(CC(=O)O)c(C)n2C(=O)c1ccc(Cl)cc1 [Indomethacin, reference compound]		42					
COc1ccc2cc([C@H](C)C(=O)O)ccc2c1 [Naproxen, reference compound]		11					inhibition in vivo at 500 µmol/kg [2, 6]: 26%; inhibition in vivo at 500 µmol/kg [2, 7]: 53%; inhibition in vivo at 500 µmol/kg [2, 8]: 44%
Cc1c(Cl)cccc1Nc1ccccc1C(=O)O [Tolfenamic acid, reference compound]	170	24					
Cc1c(C)c2c(c(C)c1O)CCC(C)(C(=O)O)O2 (centres unmarked) [Trolox, 6-hydroxy-2,5,7,8-tetramethylchroman-2-carboxylic acid, reference compound]	> 300						Percent Interaction with DPPH ([4]; compound 50 µΜ): 38%; Percent Interaction with DPPH ([4]; compound 100 µΜ): 90%; Percent Interaction with DPPH ([4]; compound 200 µΜ): 92%; IC50 [3]: 25 µM

— publication PMC6767220, “Active Anti-Inflammatory and Hypolipidemic Derivatives of Lorazepam” (Molecules, 2019)
